Legend:
HKB-11 lymphoma cells = experiment: Label-free bottom-up LC-MS proteomics, differentially expressed proteins; type: cell-based, human
Method: The HKB-11 lymphoma cells were placed in 6-well plates at a density of 3.0 × 10^6 cells/well and incubated overnight at 37 °C in 5% CO2. […] Treatments were performed in triplicate and incubated for 24 h under the same conditions. Following incubation, each flask of cells was subjected to a 0.25% w/v trypsin treatment for 4 min at 37 °C, and the cell culture medium was collected. Additionally, an equal volume of DMEM F-12 medium (containing 10% FBS) was added before mixing with the previously collected media to neutralise the trypsin. The cells were spun in a centrifuge at 500× g for 5 min at RT. The cell pellets were washed twice with ice-cold PBS and spun again at 500× g for 5 min. These cell pellets were then suspended in a lysis buffer that included 1 μL of universal nuclease (Easypep Mini Kit) (Thermo Fisher Scientific, Sydney, NSW, Australia) and supplemented with Halt™ Protease and Phosphatase Inhibitor Cocktail in a 1:100 ratio (Thermo Fisher Scientific, Sydney, NSW, Australia). The cells were gently pipetted 10–15 times to reduce the sample’s viscosity and then placed on ice for 20 min. The lysate was centrifuged at 14,000 rpm for 20 min at 4 °C, and the resulting liquid was collected.
The Pierce™ Rapid Gold BCA Protein Assay Kit (#A53226, Thermo Fisher Scientific, Sydney, NSW, Australia) was used to determine the protein concentration of the cell lysate in triplicate, using a bovine serum albumin (BSA) standard, following the manufacturer’s protocol. In brief, 1 μL of each sample replicate was diluted 1:20 in Milli-Q water, along with 20 μL of each standard, and then placed in a 96-well plate with 200 μL of working reagent in each well. Samples were diluted to a concentration within the 20–2000 μg/mL working range. The plate was thoroughly mixed on a plate shaker for 30 s and incubated at RT for 5 min, and then the absorbance was measured within 20 min at 480 nm using a microplate spectrophotometer (BMG CLARIOstar, Melbourne, VIC, Australia). The blank absorbance was subtracted from all other readings of standards and samples, and the sample concentration was determined using the established BSA standard calibration curve. The samples were then stored at −80 °C for further analysis.
The protein samples (100 μg) were subjected to chemical and enzymatic sample processing using the EasyPep™ Mini MS Sample Prep Kit following the manufacturer’s instructions (Thermo Fisher Scientific, Sydney, NSW, Australia) and as reported in the literature. Briefly, the sample volume was adjusted to 100 μL using a lysis buffer in a microcentrifuge tube. Subsequently, the reduction and alkylation solutions (50 μL each) were introduced, gently mixed, and incubated at 95 °C with a heat block for 10 min. The samples were allowed to cool to RT, after which 50 μL of the reconstituted trypsin/lys-C protease mixture was added to each sample and incubated with shaking at 37 °C for 3 h. Following incubation, 50 μL of a digestion stop solution was gently mixed into the samples. Peptide clean-up columns were used to remove both hydrophilic and hydrophobic impurities. The resulting clean peptide samples were dehydrated using a vacuum centrifuge and reconstituted in 100 μL of a 0.1% formic acid solution in water for LC–MS analysis. Subsequently, these samples were carefully transferred to maximum recovery sample vials (Waters Corp., Milford, MA, USA).
Label-free, bottom-up proteomic quantification was performed using a micro high-performance liquid chromatography system (Waters M-Class) coupled with a SCIEX™ TripleTOF® 6600 quadrupole time-of-flight mass spectrometer (SCIEX, Framingham, MA, USA), operated in positive electrospray ionisation mode (ESI+). […]

[1] = system: HKB-11 human lymphoma cells; experiment: Alamar Blue antiproliferative assay, HKB-11; type: cell-based; settings: HKB-11, 72 h, single postbiotics, GraphPad Prism nonlinear regression, read-out: IC50 (concentration required to inhibit 50% of cell growth)
Method: The cell viability of the HKB-11, Hs 313.T, and HS-5 cells after treatment with different concentrations of the seven different postbiotics, including SCFA salts (magnesium acetate, sodium propionate, and sodium butyrate), UA and UB, purine nucleoside (inosine), and bacteriocin (N), was determined using the Alamar Blue assay as per the method described earlier. Briefly, 100 μL of cells was cultured in 96-well plates at a 3 × 10^5 cells/mL seeding density. After 24 h, the cells were treated with 16,000 µM of each postbiotic except for the urolithins, which were applied at 500 µM using a 1:2 serial dilution across a 10-point dose–response curve, followed by a 72 h incubation. A positive control using doxorubicin was prepared at a concentration of 4 μM, and an untreated control with 0.1% DMSO was added to every plate. At the end of the incubation period, the culture media were removed, and 100 μL of a 0.1 mg/mL Alamar Blue solution (resazurin, prepared as a stock solution at 1 mg/mL in freshly made PBS, followed by a 1:10 dilution with serum-free media) was added to each well. The fluorescence levels were assessed using a microplate spectrophotometer (BMG CLARIOstar, Mornington, VIC, Australia) with an excitation wavelength of 555 nm and emission measurement at 595 nm. The compounds were tested in triplicate, with the untreated control taken as 100% cell viability.
Data were collected and managed using MS Office Excel and GraphPad Prism for statistical analyses and visualisation. Data collection and analyses were carried out in triplicate, and the outcomes were presented as the mean ± standard deviation. Statistical significance between the mean values was determined at p ≤ 0.05 employing a two-way ANOVA. Tukey and Dunnett’s tests were utilised within GraphPad Prism software to perform nonlinear regression and multiple comparisons. Furthermore, GraphPad Prism software computed the IC50 value (representing the drug concentration required to achieve a 50% cell growth inhibition). The experimental groups in the proteomics study were compared statistically using unpaired t-tests, assuming equal variances. Candidate proteins were selected based on an absolute log2 fold change ≥ 0.58 and a Q-value ≤ 0.05. Enrichment analysis was subsequently conducted using Ingenuity Pathway Analysis (IPA), applying a significance threshold of adjusted Q ≤ 0.05 to identify functionally enriched pathways, focusing on those with an absolute z-score of ≥1.

[2] = HKB-11, N 3200 μM, 24 h, vs untreated control, Q ≤ 0.05
[3] = HKB-11, UB 300 μM, 24 h, vs untreated control, Q ≤ 0.05

**Q.** “Nisin (ITSISLCTPGCKTGALMGCNMKTATCHCSIHVSK; Lantibiotic nisin-A; UniProt P13068 24-57, looked up) [34-amino-acid lantibiotic peptide (bacteriocin) produced by Lactococcus lactis; purchased]” was tested. Which “Log2FC CDK4 (Cyclin-dependent kinase 4)” value (HKB-11 lymphoma cells; [2]) did it give?
**A.** −1.26

**Q.** And the “Log2FC CTNNA1 (Catenin alpha-1)” value (HKB-11 lymphoma cells; [2])?
**A.** −0.97

**Q.** What about the “Log2FC HDAC1 (Histone deacetylase 1)” value (HKB-11 lymphoma cells; [2]) of the same compound?
**A.** −0.67

**Q.** What about the “Log2FC LARP1 (La-related protein 1)” value (HKB-11 lymphoma cells; [2]) of the same compound?
**A.** −1.27

**Q.** What about the “Log2FC MAPK14 (Mitogen-activated protein kinase 14)” value (HKB-11 lymphoma cells; [2]) of the same compound?
**A.** −0.80

**Q.** What about the “Log2FC NUP62 (Nuclear pore glycoprotein p62)” value (HKB-11 lymphoma cells; [2]) of the same compound?
**A.** −0.60

**Q.** What about the “Log2FC POLR2E (DNA-directed RNA polymerases I, II, and III subunit RPABC1)” value (HKB-11 lymphoma cells; [2]) of the same compound?
**A.** −0.62

**Q.** And the “Log2FC POLR2G (DNA-directed RNA Polymerase II subunit RPB7)” value (HKB-11 lymphoma cells; [2])?
**A.** −0.63

**Q.** What about the “Log2FC POLR2H (DNA-directed RNA polymerases I, II, and III subunit RPABC3)” value (HKB-11 lymphoma cells; [2]) of the same compound?
**A.** −0.59

**Q.** What about the “Log2FC PPP1R14B (Protein phosphatase 1 regulatory subunit 14B)” value (HKB-11 lymphoma cells; [2]) of the same compound?
**A.** −0.93

**Q.** And the “Log2FC PRC1 (Protein regulator of cytokinesis 1)” value (HKB-11 lymphoma cells; [2])?
**A.** −0.72

**Q.** What about the “Log2FC RFC1 (Replication factor C subunit 1)” value (HKB-11 lymphoma cells; [2]) of the same compound?
**A.** −0.85

**Q.** And the “Log2FC RFC2 (Replication factor C subunit 2)” value (HKB-11 lymphoma cells; [2])?
**A.** −0.59

**Q.** And the “Log2FC SRPK2 (SRSF protein kinase 2)” value (HKB-11 lymphoma cells; [2])?
**A.** −0.70

**Q.** What about the “Log2FC TYMS (Thymidylate synthase)” value (HKB-11 lymphoma cells; [2]) of the same compound?
**A.** −1.54

**Q.** And the “Log2FC PCNA” value (HKB-11 lymphoma cells; HKB-11, N treatment (3200 µM), 24 h, vs untreated control)?
**A.** −0.63

**Q.** What about the “Log2FC PLPBP (Pyridoxal phosphate homeostasis protein)” value (HKB-11 lymphoma cells; HKB-11, Nisin_3.2 / Control, Qvalue 0.00903294) of the same compound?
**A.** 0.58

**Q.** And the “Log2FC THOC3 (THO complex subunit 3)” value (HKB-11 lymphoma cells; HKB-11, Nisin_3.2 / Control, Qvalue 0.0139626)?
**A.** -0.58

**Q.** What about the “Log2FC MAZ (Myc-associated zinc finger protein)” value (HKB-11 lymphoma cells; HKB-11, Nisin_3.2 / Control, Qvalue 0.0377318) of the same compound?
**A.** -0.58

**Q.** And the “Log2FC TXNDC9 (Thioredoxin domain-containing protein 9)” value (HKB-11 lymphoma cells; HKB-11, Nisin_3.2 / Control, Qvalue 0.0383948)?
**A.** -0.58

**Q.** And the IC50 [1]?
**A.** 1470 µM

**Q.** O=c1oc2cc(O)ccc2c2ccccc12 [UB, Urolithin B] was tested. Which “Log2FC APOC3 (Apolipoprotein C-III)” value (HKB-11 lymphoma cells; [3]) did it give?
**A.** 2.04

**Q.** What about the “Log2FC C4BPA (C4b-binding protein alpha chain)” value (HKB-11 lymphoma cells; [3]) of the same compound?
**A.** 4.39

**Q.** And the “Log2FC CLEC11A (C-type lectin domain family 11 member A)” value (HKB-11 lymphoma cells; [3])?
**A.** 3.06

**Q.** And the “Log2FC COX6C (Cytochrome c oxidase subunit 6C)” value (HKB-11 lymphoma cells; [3])?
**A.** 2.07

**Q.** And the “Log2FC COX7C (Cytochrome c oxidase subunit 7C, mitochondrial)” value (HKB-11 lymphoma cells; [3])?
**A.** 2.08

**Q.** What about the “Log2FC FGB (Fibrinogen beta chain)” value (HKB-11 lymphoma cells; [3]) of the same compound?
**A.** 2.14

**Q.** What about the “Log2FC GSN (Gelsolin)” value (HKB-11 lymphoma cells; [3]) of the same compound?
**A.** 2.26

**Q.** And the “Log2FC HBD (Haemoglobin subunit delta; Haemoglobin subunit beta)” value (HKB-11 lymphoma cells; [3])?
**A.** 5.94

**Q.** What about the “Log2FC HBE1 (Haemoglobin subunit epsilon; gam1; gamma-2)” value (HKB-11 lymphoma cells; [3]) of the same compound?
**A.** 5.63

**Q.** What about the “Log2FC ITIH2 (Inter-alpha-trypsin inhibitor heavy chain H2)” value (HKB-11 lymphoma cells; [3]) of the same compound?
**A.** 2.76

**Q.** And the “Log2FC MAD2L1 (Mitotic spindle assembly checkpoint protein MAD2A)” value (HKB-11 lymphoma cells; [3])?
**A.** −1.45

**Q.** What about the “Log2FC MT-CO2 (Cytochrome c oxidase subunit 2)” value (HKB-11 lymphoma cells; [3]) of the same compound?
**A.** 2.34

**Q.** And the “Log2FC MT-ND4 (NADH-ubiquinone oxidoreductase chain 4)” value (HKB-11 lymphoma cells; [3])?
**A.** 2.24

**Q.** And the “Log2FC NDUFA11 (NADH dehydrogenase [ubiquinone] 1 alpha subcomplex subunit 11)” value (HKB-11 lymphoma cells; [3])?
**A.** 2.18

**Q.** What about the “Log2FC PCNA (Proliferating cell nuclear antigen)” value (HKB-11 lymphoma cells; [3]) of the same compound?
**A.** −0.63

**Q.** And the “Log2FC PSME3 (Proteasome activator complex subunit 3)” value (HKB-11 lymphoma cells; [3])?
**A.** −0.59

**Q.** What about the “Log2FC SAMM50 (Sorting and assembly machinery component 50 homolog)” value (HKB-11 lymphoma cells; [3]) of the same compound?
**A.** 2.01

**Q.** What about the “Log2FC UBE2E1 (Ubiquitin-conjugating enzyme E2 E1; E2 E3; E2 E2)” value (HKB-11 lymphoma cells; [3]) of the same compound?
**A.** −1.69

**Q.** What about the “Log2FC UBE2S (Ubiquitin-conjugating enzyme E2 S)” value (HKB-11 lymphoma cells; [3]) of the same compound?
**A.** −1.21

**Q.** What about the IC50 [1] of the same compound?
**A.** 87.6 µM
